Experimental data reported in patent US11459323B2, “Monocyclic β-lactam compound for treating bacterial infection” (MEDSHINE DISCOVERY INC., priority 2018, dated 2022).
≈ marks a conversion by molar mass, not a printed value. Like-named read-outs stand apart in the source and are kept apart here.

Assays:
E. coli ATCC 25922 = test: MIC by micro-liquid dilution method (CLSI); format: cell-based; details: Escherichia coli
[1] = test system: E. coli ATCC BAA-2523 (OXA-48); test: MIC by micro-liquid dilution method (CLSI); format: cell-based; details: Escherichia coli, ATCCBAA2523; E. coli ATCCBAA-2523; read-out: MIC
Excerpt: (§1) Three strains of Klebsiella pneumonia, K. pneumoniae ATCC BAA-205 (TEM-1/SHV-1/SHV-12), K. pneumoniae ATCC BAA-1705 (KPC-2), K. pneumoniae ATCC BAA-2470 (NDM-1); three strains of Pseudomonas aeruginosa, P. aeruginosa NCTC13437 (VIM-10; VEB-1), P. aeruginosa PA 14 and P. aeruginosa ATCC 35151; four strains of Escherichia coli, E. coli NCTC 13476 (IMP-1 type), E. coli ATCC BAA-2523 (OXA-48), E. coli MG1655Δtol C, E. coli ATCC 25922; one strain of Acinetobacter baumannii, A. baumannii ATCC 17978 and one strain of Staphylococcus aureus, S. aureus NRS384 were used to determine the minimum inhibitory concentration (MIC) of the compounds by micro-liquid dilution method according to the Institute of Clinical and Laboratory Standard (CLSI) requirements.

[2] = test system: E. coli NCTC 13476 (IMP-1 type); test: MIC by micro-liquid dilution method (CLSI); format: cell-based; details: Escherichia coli; E. coli NCTC13476; read-out: MIC
Excerpt: as §1

P. aeruginosa PA 14 = test: MIC by micro-liquid dilution method (CLSI); format: cell-based; details: Pseudomonas aeruginosa, PA14; P. aeruginosa PA 14; read-out: MIC
Excerpt: as §1

E. coli MG1655Δtol C = test: MIC by micro-liquid dilution method (CLSI); format: cell-based; details: Escherichia coli
Excerpt: as §1

[3] = test system: K. pneumoniae ATCC BAA-2470 (NDM-1); test: MIC by micro-liquid dilution method (CLSI); format: cell-based, Klebsiella pneumonia; details: Klebsiella pneumoniae, ATCCBAA2470
P. aeruginosa ATCC 35151 = test: MIC by micro-liquid dilution method (CLSI); format: cell-based; details: Pseudomonas aeruginosa, ATCC35151
[4] = test system: K. pneumoniae ATCC BAA-1705 (KPC-2); test: MIC by micro-liquid dilution method (CLSI); format: cell-based, Klebsiella pneumonia; details: Klebsiella pneumoniae, ATCCBAA1705
[5] = test system: K. pneumoniae ATCC BAA-205 (TEM-1/SHV-1/SHV-12); test: MIC by micro-liquid dilution method (CLSI); format: cell-based, Klebsiella pneumonia; details: Klebsiella pneumoniae, ATCCBAA205
[6] = Body weight of mice in Pseudomonas aeruginosa lung infection experiment (1); format: in vivo, CD-1 (ICR) mice; details: Aztreonam group (400 mg/kg.day, ip)
Method: CD-1 (ICR) mice, provided by Beijing Charles River Laboratory Animal Technology Co., Ltd., weighing 23-27 g, 7 weeks old, female, a total of 64 mice.
The mice were weighed every day after the start of the experiment and the weight changes were recorded.
Graphpad Prism mapping software was used to make scatter plots of lung tissue CFU. SPSS19.0 software was used to count CFU and average body weight, and analysis of variance was used to analyze differences between groups.

A. baumannii ATCC 17978 = test: MIC by micro-liquid dilution method (CLSI); format: cell-based; details: Acinetobacter baumannii; A. baumannii ATCC17978; read-out: MIC
[7] = test system: Pseudomonas aeruginosa PA14; test: Lungs of immunosuppressed mice infected with Pseudomonas aeruginosa (1), lung bacterial load; format: in vivo; details: 24 hours after infection, total dosage 400 mg/kg, day, ip at 2 h, 4 h, 6 h, 8 h
Method: Pseudomonas aeruginosa PA14. 64 mice were intraperitoneally injected with 150 mg/kg cyclophosphamide on the first day and the fourth day to give immunosuppressed mice. […] [table] The mice were injected with 50 μL of bacterial solution (2×10^3 CFU) through the airway. 2 hours after the infection, 4 mice in the model group was sacrificed by removing cervical vertebra. Two hours after infection, the drugs were administered by groups, and the mice were administered intraperitoneally once at 2 hours, 4 hours, 6 hours, and 8 hours, a total of 4 times. Mice of each group were sacrificed by removing cervical vertebra 24 hours after infection, lung and kidney tissues were taken aseptically and put into sterilized tissue homogenate tubes, weighed, and an appropriate amount of normal saline (NS) was added, the mixture was homogenized by a homogenizer for 1 min, the lung tissues of the model group were diluted 10^4, 10^5, 10^6 times, the lung tissues of each administration group were diluted 10, 100 times, the kidney tissues of the model group were diluted 10^2, […], 10^4 times, and the lung tissues of each administration group were diluted 10 times, the obtained mixtures were coated on TSA plates using spiral coater, then incubated at 37° C. overnight, and the CFU was counted with a colony counter. Graphpad Prism mapping software was used to make scatter plots of lung tissue CFU. SPSS19.0 software was used to count CFU and average body weight, and analysis of variance was used to analyze differences between groups.

C[C@@H](O)[C@H]1C(=O)N2C(C(=O)O)=C(S[C@@H]3CN[C@H](C(=O)N(C)C)C3)[C@H](C)[C@H]12 [Meropenem, reference compound]
MIC (E. coli ATCC 25922; ATCC25922): ≤ 0.125 µg/mL
MIC [1]: 2 µg/mL (≈ 5.22 µM)
MIC [2]: 32 µg/mL (≈ 83.4 µM)
MIC (P. aeruginosa PA 14): 0.5 µg/mL (≈ 1.3 µM)
MIC (E. coli MG1655Δtol C): ≤ 0.125 µg/mL
MIC [3]: > 128 µg/mL
MIC (P. aeruginosa ATCC 35151): ≤ 0.125 µg/mL
MIC [4]: 128 µg/mL (≈ 334 µM)
MIC [5]: ≤ 0.125 µg/mL

C[C@H]1[C@H](NC(=O)/C(=N\OC(C)(C)C(=O)O)c2csc(N)n2)C(=O)N1S(=O)(=O)O [Aztreonam, reference compound]
MIC (E. coli ATCC 25922; E. coli ATCC25922, read-out: MIC): 0.25 µg/mL (≈ 0.574 µM)
Body weight on the fifth day [6]: 28.02 ± 1.08 g
Body weight on the first day [6]: 27.16 ± 1.74 g
Body weight on the fourth day [6]: 27.80 ± 2.37 g
MIC [1]: 16 µg/mL (≈ 36.7 µM)
MIC [2]: 0.25 µg/mL (≈ 0.574 µM)
MIC (P. aeruginosa PA 14): 8 µg/mL (≈ 18.4 µM)
MIC (E. coli MG1655Δtol C): ≤ 0.125 µg/mL
MIC (P. aeruginosa ATCC 35151): ≤ 0.125 µg/mL
MIC (A. baumannii ATCC 17978): 32 µg/mL (≈ 73.5 µM)
LOG10-of bacterial load [7]: 1.62 ± 2.22
